In PubChem BioAssay (NCI):
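96-well plates; 48 h exposure; 5 concentrations. Endpoints by linear interpolation between flanking doses. Not reached: highest tested concentration assigned. The concentration for full growth arrest is given as TGI.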

Key:
Test in all cases: NCI anticancer screen, dose series, 48 h
SK-OV-3 ovarian = test system: SK-OV-3 ovarian
KM12 colon = test system: KM12 colon
SN12C renal = test system: SN12C renal
A498 renal = test system: A498 renal
XF 498 CNS = test system: XF 498 CNS
SNB-19 CNS = test system: SNB-19 CNS
CCRF-CEM leukemia = test system: CCRF-CEM leukemia
OVCAR-3 ovarian = test system: OVCAR-3 ovarian
U251 CNS = test system: U251 CNS
OVCAR-8 ovarian = test system: OVCAR-8 ovarian
UO-31 renal = test system: UO-31 renal
DLD-1 colon = test system: DLD-1 colon
SK-MEL-2 melanoma = test system: SK-MEL-2 melanoma
HCT-15 colon = test system: HCT-15 colon
SW-620 colon = test system: SW-620 colon
OVCAR-4 ovarian = test system: OVCAR-4 ovarian
UACC-257 melanoma = test system: UACC-257 melanoma
UACC-62 melanoma = test system: UACC-62 melanoma
SNB-75 CNS = test system: SNB-75 CNS
IGROV1 ovarian = test system: IGROV1 ovarian
CAKI-1 renal = test system: CAKI-1 renal
NCI-H460 lung = test system: NCI-H460 lung
HOP-18 NSCLC = test system: HOP-18 NSCLC
LXFL 529 NSCLC = test system: LXFL 529 NSCLC
HOP-92 NSCLC = test system: HOP-92 NSCLC
M14 melanoma = test system: M14 melanoma
SF-268 CNS = test system: SF-268 CNS
SF-295 CNS = test system: SF-295 CNS
OVCAR-5 ovarian = test system: OVCAR-5 ovarian
MOLT-4 leukemia = test system: MOLT-4 leukemia
A549 NSCLC = test system: A549 NSCLC
RXF 393 renal = test system: RXF 393 renal
EKVX NSCLC = test system: EKVX NSCLC
NCI-H23 lung = test system: NCI-H23 lung
MALME-3M melanoma = test system: MALME-3M melanoma
HOP-62 NSCLC = test system: HOP-62 NSCLC
HCT-116 colon = test system: HCT-116 colon
ACHN renal = test system: ACHN renal
M19-MEL melanoma = test system: M19-MEL melanoma
HT29 colon = test system: HT29 colon
DMS 273 small cell lung = test system: DMS 273 small cell lung
HL-60(TB) leukemia = test system: HL-60(TB) leukemia
TK-10 renal = test system: TK-10 renal
KM20L2 colon = test system: KM20L2 colon
SR leukemia = test system: SR leukemia
SK-MEL-28 melanoma = test system: SK-MEL-28 melanoma
COLO 205 colon = test system: COLO 205 colon
NCI-H522 lung = test system: NCI-H522 lung
NCI-H226 lung = test system: NCI-H226 lung
SK-MEL-5 melanoma = test system: SK-MEL-5 melanoma
LOX IMVI melanoma = test system: LOX IMVI melanoma
DMS 114 small cell lung = test system: DMS 114 small cell lung
786-0 renal = test system: 786-0 renal

Structure (SMILES): [O-][n+]1c2cc(CBr)c(CBr)cc2[n+]([O-])c2c(O)cccc21
- TGI (SK-OV-3 ovarian): 9.15 µM
- TGI (KM12 colon): 3.66 µM
- TGI (SN12C renal): 3.05 µM
- TGI (A498 renal): 25.7 µM
- TGI (XF 498 CNS): 4.67 µM
- TGI (SNB-19 CNS): 11 µM
- TGI (CCRF-CEM leukemia): 0.714 µM
- TGI (OVCAR-3 ovarian): 5.24 µM
- TGI (U251 CNS): 7.07 µM
- TGI (OVCAR-8 ovarian): 3.3 µM
- TGI (UO-31 renal): 4.56 µM
- TGI (DLD-1 colon): 2.71 µM
- TGI (SK-MEL-2 melanoma): 4.83 µM
- TGI (HCT-15 colon): 3.18 µM
- TGI (SW-620 colon): 2.9 µM
- TGI (OVCAR-4 ovarian): 5.25 µM
- TGI (UACC-257 melanoma): 6.37 µM
- TGI (UACC-62 melanoma): 3.39 µM
- TGI (SNB-75 CNS): 4.48 µM
- TGI (IGROV1 ovarian): 8.59 µM
- TGI (CAKI-1 renal): 6.7 µM
- TGI (NCI-H460 lung): 4.21 µM
- TGI (HOP-18 NSCLC): 10.5 µM
- TGI (LXFL 529 NSCLC): 2.89 µM
- TGI (HOP-92 NSCLC): 2.92 µM
- TGI (M14 melanoma): 3.29 µM
- TGI (SF-268 CNS): 5.91 µM
- TGI (SF-295 CNS): 3.27 µM
- TGI (OVCAR-5 ovarian): 3.74 µM
- TGI (MOLT-4 leukemia): 1.25 µM
- TGI (A549 NSCLC): 9.03 µM
- TGI (RXF 393 renal): 3.69 µM
- TGI (EKVX NSCLC): 11.6 µM
- TGI (NCI-H23 lung): 6.68 µM
- TGI (MALME-3M melanoma): 3.47 µM
- TGI (HOP-62 NSCLC): 34.7 µM
- TGI (HCT-116 colon): 2.87 µM
- TGI (ACHN renal): 3.51 µM
- TGI (M19-MEL melanoma): 3.32 µM
- TGI (HT29 colon): 3.88 µM
- TGI (DMS 273 small cell lung): 3.22 µM
- TGI (HL-60(TB) leukemia): 1.14 µM
- TGI (TK-10 renal): 10.9 µM
- TGI (KM20L2 colon): 9.53 µM
- TGI (SR leukemia): 0.662 µM
- TGI (SK-MEL-28 melanoma): 3.67 µM
- TGI (COLO 205 colon): 3.47 µM
- TGI (NCI-H522 lung): 1.16 µM
- TGI (NCI-H226 lung): 14.2 µM
- TGI (SK-MEL-5 melanoma): 4.39 µM
- TGI (LOX IMVI melanoma): 2.64 µM
- TGI (DMS 114 small cell lung): 3.35 µM
- TGI (786-0 renal): 2.93 µM
